ChEMBL document CHEMBL1201862, “PubChem BioAssay data set” (2004)
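Five compound concentrations were applied to cells in 96-well plates for 48 hours; endpoints were derived by simple linear interpolation of the resulting dose-response curve. GI50 marks 50% less growth.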 The source made the active and inactive calls. Rule as the data show it: active = GI50 up to about 1.1 µM and inactive = higher.

Key:
Experiment in all cases: NCI-60 cell line screen, 48 h
CCRF-CEM = test system: CCRF-CEM
HOP-92 = test system: HOP-92
M14 = test system: M14
COLO 205 = test system: COLO 205
TK-10 = test system: TK-10
786-0 = test system: 786-0
ACHN = test system: ACHN
A549 = test system: A549
SK-MEL-28 = test system: SK-MEL-28
MOLT-4 = test system: MOLT-4
KM12 = test system: KM12
OVCAR-5 = test system: OVCAR-5
CAKI-1 = test system: CAKI-1
OVCAR-3 = test system: OVCAR-3
SNB-19 = test system: SNB-19
NCI-H226 = test system: NCI-H226
SW-620 = test system: SW-620
OVCAR-4 = test system: OVCAR-4
T47D = test system: T47D

Row | Structure (SMILES) | GI50 (CCRF-CEM) | GI50 (HOP-92) | GI50 (M14) | GI50 (COLO 205) | GI50 (TK-10) | GI50 (786-0) | GI50 (ACHN) | GI50 (A549) | GI50 (SK-MEL-28) | GI50 (MOLT-4) | GI50 (KM12) | GI50 (OVCAR-5) | GI50 (CAKI-1) | GI50 (OVCAR-3) | GI50 (SNB-19) | GI50 (NCI-H226) | GI50 (SW-620) | GI50 (OVCAR-4) | GI50 (T47D)
1 | CCO/C=N\C1=C(C#N)SC2=N/C(=C\c3ccco3)C(=O)N21 | > 100 µM (inactive) | > 100 µM (inactive) | > 100 µM (inactive) | > 100 µM (inactive) | > 100 µM (inactive) | > 100 µM (inactive) | > 100 µM (inactive) | > 100 µM (inactive) | > 100 µM (inactive) | > 100 µM (inactive) | > 100 µM (inactive) | > 100 µM (inactive) | > 100 µM (inactive) | > 100 µM (inactive) | > 100 µM (inactive) | > 100 µM (inactive) | > 100 µM (inactive) | > 100 µM (inactive) | > 100 µM (inactive)
2 | N=C(Cc1ccccc1)NCC(=O)O | > 100 µM (inactive) | > 100 µM (inactive) | > 100 µM (inactive) | > 100 µM (inactive) | > 100 µM (inactive) | > 100 µM (inactive) | > 100 µM (inactive) | > 100 µM (inactive) | > 100 µM (inactive) | > 100 µM (inactive) | > 100 µM (inactive) | > 100 µM (inactive) | > 100 µM (inactive) | > 100 µM (inactive) | > 100 µM (inactive) | > 100 µM (inactive) | > 100 µM (inactive) | > 100 µM (inactive) | > 100 µM (inactive)
3 | OCc1ccc2c(c1)CC1(C2)Cc2cc3c(cc2C1O)CCC3 (stereo not given) | 4.01 µM (inactive) | 12.2 µM (inactive) | 3.4 µM (inactive) | 3.17 µM (inactive) | 21.9 µM (inactive) | 5.64 µM (inactive) | 6.67 µM (inactive) | 6.43 µM (inactive) | 6.34 µM (inactive) | 4.09 µM (inactive) | 2.87 µM (inactive) | 18.9 µM (inactive) | 5.25 µM (inactive) | 4.78 µM (inactive) | 4.97 µM (inactive) | 7.31 µM (inactive) | 4.55 µM (inactive) | 10.4 µM (inactive) | 1.36 µM (inactive)
4 | Cn1c(-c2cccs2)cc(-c2ccsc2)c1-c1ccsc1 | > 100 µM (inactive) | > 100 µM (inactive) | > 100 µM (inactive) | > 100 µM (inactive) | > 100 µM (inactive) | > 100 µM (inactive) | > 100 µM (inactive) | > 100 µM (inactive) | > 100 µM (inactive) | > 100 µM (inactive) | > 100 µM (inactive) | > 100 µM (inactive) | > 100 µM (inactive) | > 100 µM (inactive) | > 100 µM (inactive) | > 100 µM (inactive) | > 100 µM (inactive) | > 100 µM (inactive) | 1.81 µM (inactive)
5 | Cc1cc(N)ccc1/N=N\c1ccc(S(=O)(=O)CCOS(=O)(=O)O)cc1 | 0.382 µM (active) | 5.02 µM (inactive) | 0.513 µM (active) | 2.07 µM (inactive) | 14 µM (inactive) | 0.414 µM (active) | 3.24 µM (inactive) | 3.78 µM (inactive) | 1.69 µM (inactive) | 0.23 µM (active) | 2.87 µM (inactive) | 20.3 µM (inactive) | 1.88 µM (inactive) | 3.45 µM (inactive) | 4.72 µM (inactive) | 3.37 µM (inactive) | 0.368 µM (active) | 10.5 µM (inactive) | 12.2 µM (inactive)
6 | CCCOc1cc2c(cc1O)CC[C@@H]1[C@@H]2CC[C@]2(C)[C@@H](O)CC[C@@H]12 | 1.56 µM (inactive) | 10.3 µM (inactive) | 1.8 µM (inactive) | 12 µM (inactive) | 7.5 µM (inactive) | 3.63 µM (inactive) | 5.2 µM (inactive) | 2.99 µM (inactive) | 8.26 µM (inactive) | 0.946 µM (active) | 4.15 µM (inactive) | 27.4 µM (inactive) | 2.81 µM (inactive) | 1.55 µM (inactive) | 6.71 µM (inactive) | 5.97 µM (inactive) | 1 µM (active) | 15.1 µM (inactive) | 3.19 µM (inactive)
7 | CCCCN1C(=O)C[C@H]2[C@@H]3CCc4cc(OCCN5CCCC5)ccc4[C@H]3CC[C@]2(C)C1=O | 4.06 µM (inactive) | 6.08 µM (inactive) | 2.03 µM (inactive) | 1.92 µM (inactive) | 14.6 µM (inactive) | 2.88 µM (inactive) | 12.9 µM (inactive) | 7.8 µM (inactive) | 3.45 µM (inactive) | 2.65 µM (inactive) | 7.94 µM (inactive) | 11.4 µM (inactive) | 7.96 µM (inactive) | 10.6 µM (inactive) | 12.6 µM (inactive) | 6.53 µM (inactive) | 11.5 µM (inactive) | 14.1 µM (inactive) | 12.3 µM (inactive)
8 | CC1(C)CC[C@]2(C)CC=C3[C@]4(C)CC[C@H]5C(C)(C)C(=O)CC[C@]5(C)[C@H]4CC[C@@]3(C)[C@H]2C1 | > 100 µM (inactive) | > 100 µM (inactive) | > 100 µM (inactive) | > 100 µM (inactive) | > 100 µM (inactive) | > 100 µM (inactive) | > 100 µM (inactive) | > 100 µM (inactive) | > 100 µM (inactive) | > 100 µM (inactive) | > 100 µM (inactive) | > 100 µM (inactive) | > 100 µM (inactive) | > 100 µM (inactive) | > 100 µM (inactive) | > 100 µM (inactive) | > 100 µM (inactive) | > 100 µM (inactive) | > 100 µM (inactive)
9 | Cn1c2ccccc2c2c(-c3ccccc3)cc3c(c21)C(=O)C=CC3=O | 0.228 µM (active) | 1.96 µM (inactive) | 1.46 µM (inactive) | 0.632 µM (active) | 1.92 µM (inactive) | 1.57 µM (inactive) | 1.63 µM (inactive) | > 10 µM (inactive) | 2 µM (inactive) | 0.28 µM (active) | 4.43 µM (inactive) | > 8.51 µM (inactive) | 1.91 µM (inactive) | 2.05 µM (inactive) | 4.05 µM (inactive) | 2.18 µM (inactive) | 0.421 µM (active) | 2.46 µM (inactive) | 1.38 µM (inactive)
10 | COc1cc(C2SC(=N)Nc3c2c(C)nn3C(=O)c2ccccc2O)cc(OC)c1OC (stereo not given) | 3.85 µM (inactive) | 3.12 µM (inactive) | 5.92 µM (inactive) | > 10 µM (inactive) | > 10 µM (inactive) | 9.14 µM (inactive) | 4.32 µM (inactive) | 4.24 µM (inactive) | > 10 µM (inactive) | 4 µM (inactive) | 8.3 µM (inactive) | > 10 µM (inactive) | 6.05 µM (inactive) | > 10 µM (inactive) | 8.71 µM (inactive) | > 10 µM (inactive) | > 10 µM (inactive) | 4.89 µM (inactive) | 3.26 µM (inactive)
